Literature values in US7491312B2, “Identifying therapeutic compounds based on their physical-chemical properties” (Edison Pharmaceuticals, Inc., priority 2002, dated 2009).

Target: amyloid-β fibril formation (Homo sapiens, UniProt P05067)
Details: compounds with an apomorphine core structure (FIG. 8)

amyloid-β fibril formation, sequence (P05067 672-711 limits assumed): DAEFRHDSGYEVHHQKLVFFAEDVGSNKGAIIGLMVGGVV

Structure (SMILES) | reduction of fibril growth
COc1ccc2c(c1O)-c1cccc3c1C(C2)N(C)CC3 (centres unmarked) [apocodeine] | 5%
CN1CCc2cccc3c2[C@H]1Cc1ccc(O)c(O)c1-3 [apomorphine] | 99%
